Laboratory results reported in US8614188B2, “Inhibiting collagen-induced platelet aggregation and activation with peptide variants” (University of Massachusetts, priority 2006, dated 2013).

Tests used:
[1] = system: cells; assay: Toxicity of DMSO to cells; type: cell-based
Protocol: (§1) The CP and CP-A peptides were noted to be hydrophobic and insoluble in aqueous solutions. A variety of solvents and carriers were tested to improve their solubility. Solvents and/or carriers that improve solubility of CP and CP-A included, but were not limited to, ethanol, dimethylsulphoxide (DMSO), dimethyl formamide (DMF), and trifluoracetic acid (TFA). When using DMSO as a solvent, the final concentration used in the platelet function experiments ranged from 0.063%-0.250%. DMSO concentrations greater than 1% were observed toxic to cells. Stock solutions of CP and CP-A were prepared in DMSO and used at a […] dilution.

[2] = Solubility of peptides in aqueous solutions and solvents; type: physicochemical; conditions: solubility improved by ethanol, DMSO, DMF, TFA
Protocol: as §1

[3] = system: platelets; assay: Collagen-induced platelet activation, whole blood flow cytometry (P-Selectin, PAC-1); type: cell-based, human; conditions: for concentration-dependent effect on collagen-induced platelet activation: 50, 100 or 200 μM
Protocol: Peripheral blood was drawn from healthy, nonsmoking adult volunteers (IRB-approved written informed consent) who had not received any platelet inhibitory drugs in the preceding 2 weeks. After discarding the first 2 mL, blood was drawn into a 3.2% sodium citrate Vacutainer® (Becton Dickinson, Franklin Lakes. N.J., USA).
Flow cytometric analysis may be used to evaluate platelet function, and/or the assessment of platelet activation. Michelson, A. D., “Evaluation of platelet function by flow cytometry” Pathophysiol. Haemost. Thromb. 35:67-82 (2006). In the absence of an added exogenous platelet agonist, whole blood flow cytometry can determine the activation state of circulating platelets, as judged by the binding of an activation-dependent monoclonal antibody. In addition to this assessment of platelet function in vivo, inclusion of an exogenous agonist in the assay enables analysis of the reactivity of circulating platelets in vitro. In the latter application, whole blood flow cytometry is a physiological assay of platelet function in that an agonist results in a specific functional response by the platelets: a change in the surface expression of a physiological receptor (or other antigen or bound ligand), as determined by a change in the binding of a monoclonal antibody.
Markers of platelet activation include activation-dependent changes in the glycoprotein IIb/IIIa complex and exposure of granule membrane proteins. The platelet glycoprotein IIb/IIIa complex is believed involved with biochemical events leading to activation, and may express an activation dependent epitope recognized by monoclonal antibody PAC-1. Shattil et al., “Changes in the platelet membrane glycoprotein IIb/IIIa complex during platelet activation” J. Biol. Chem. 260:11107-11114 (1985). P-Selectin (GMP-140, PADGEM, CD-62P) is now known to be a component of the alpha-granule membrane and is therefore exposed on the surface of the platelet upon activation, due to the fusing of the vesicle with the outer membrane. These two markers of platelet activation were used to study the effect of peptide on collagen-induced platelet activation using whole blood flow cytometry.
The final concentration of a peptide used in incubation (i.e., for example, the GPVI CP) was 100 μM. The following antibodies (and appropriately matched isotype control antibodies) were used for flow cytometry analysis: fluorescein isothiocyanate (FITC)-conjugated PAC-1 monoclonal antibody which recognizes the activated conformation of glycoprotein (GP) IIb/IIIa; phycoerythrin (PE)-conjugated anti-CD62P monoclonal antibody directed against P-Selectin; and PECy7-conjugated anti-CD41 monoclonal antibody which recognizes the α-subunit of the CD41/CD61 complex (GPIIb-IIIa) (BD-Pharmingen, San-Diego, Calif., USA; and/or DAKO, Carpinteria, Calif., USA).
Prior to flow cytometric experiments, PE-conjugated anti-CD62P and anti-CD41 antibodies were mixed at a ratio of 1:2.5 (volume/volume) and diluted at a ratio of 1:9 (volume/volume) with 10 mmol/L HEPES, 0.15 mol/L NaCl, pH 7.4, containing 1% bovine serum albumin (BSA) and 15 mmol/L sodium azide. Collagen was purchased from Chronolog Corp (Havertown, Pa., USA). The stock 1 mg/mL collagen solution was diluted at a ratio of 1:10 (volume/volume) with 10 mmol/L HEPES, 0.15 mol/L NaCl, pH 7.4. Stock solutions of GPVI core peptide in DMSO (or pure DMSO as a “vehicle” control) were diluted at a ratio of 1:10 (volume/volume) with 10 mmol/L HEPES, 0.15 mol/L NaCl, pH 7.4, immediately before the addition of blood samples.
Flow cytometric analysis: aliquots of citrated whole blood were incubated at 37° C. for 60 min with vehicle (DMSO; in a final concentrations of 0.063, 0.125 or 0.250%) or a preliminarily diluted GPVI core peptide in a final concentration of 100 μM. Then, the aliquoted samples were stimulated with 20 μg/mL collagen for 5 minutes at 37° C. in the presence of monoclonal antibody FITC-PAC-1. […]

C[S+](C)[O-] [DMSO, dimethylsulphoxide]
DMSO concentration observed toxic to cells [1]: greater than 1%

H-GNLVRICLGAV-OH [Peptide 2, NH2-Gly-Asn-Leu-Val-Arg-Ile-Cys-Leu-Gly-Ala-Val-OH]
solubility in aqueous solutions [2]: insoluble | reduction in the expression of the platelet activation markers compared to vehicle control ([3]; 100 μM peptide, whole blood preincubated 60 min 37° C., 20 μg/mL collagen, % P-Selectin-positive platelets, P-Selectin and PAC-1 MFI): 32%-59% | concentration-dependent effect on collagen-induced platelet activation ([3]; % P-Selectin-positive platelets, P-Selectin and PAC-1 MFI, listed as GPVI core peptide): inhibited platelet activation in a concentration-dependent manner | concentration-dependent effect on collagen-induced platelet activation ([3]; % P-Selectin-positive platelets, P-Selectin and PAC-1 MFI, listed as GPVI-CP): concentration-dependent effect | inhibition of platelet activation ([3]; Examples 4 and 5): 30-60%

H-GNLVAICLGAV-OH [CP-A, NH2-Gly-Asn-Leu-Val-Ala-Ile-Cys-Leu-Gly-Ala-Val-OH, reference compound]
solubility in aqueous solutions [2]: insoluble | expression of the platelet activation markers as compared to vehicle control ([3]; 100 μM peptide, 20 μg/mL collagen): did not lead to any significant differences | collagen-mediated platelet activation, percentage of P-Selectin-positive platelets ([3]; 100 μM, FIG. 8A): absence of effect | collagen-mediated platelet activation, P-Selectin mean fluorescence surface expression intensity ([3]; 100 μM, FIG. 8B): absence of effect | collagen-mediated platelet activation, PAC-1 mean fluorescence surface expression intensity ([3]; 100 μM, FIG. 8C): absence of effect
